Test results from PMC10066365, “Nemacol is a small molecule inhibitor of C. elegans vesicular acetylcholine transporter with anthelmintic potential” (Nature Communications, 2023).
Several values for one entry are separate records, joined by “and”; a condition that tells them apart may be missing. Identical values can stand only once.

Tested on: C. elegans
Experiment: C. elegans motor phenotype scoring on solid media (Punc/jerky-unc, coiled, paralyzed), wild-type young adults
Type: in vivo, Caenorhabditis elegans
Conditions: for any phene, mean % fraction of young adults exhibiting any phenotype (coiled, jerky-Unc or paralyzed) / atypical locomotion (number of animals) / coiled (number of animals) / no phene (number of animals) / paralyzed (number of animals): one hour; for any phene, mean % fraction of young adults exhibiting any phenotype (coiled, jerky-Unc or paralyzed): mean of three biological replicates; for atypical locomotion (number of animals) / coiled (number of animals) / no phene (number of animals) / paralyzed (number of animals): young adults, 20 animals per trial, single replicate counts; for AVERAGES Fraction Coiled / AVERAGES Fraction Paralyzed / AVERAGES Fraction Punc: average of 3 replicates
[1] = 15 μM, 30 min, single replicate
[2] = 15 μM, 60 min, single replicate
[3] = 15 μM, 90 min, single replicate
[4] = 15 μM, 120 min, single replicate
[5] = 15 μM, 240 min, single replicate
[6] = 15 μM, 360 min, single replicate
[7] = 30 μM, 30 min, single replicate
[8] = 30 μM, 60 min, single replicate
[9] = 30 μM, 90 min, single replicate

O=[N+]([O-])c1ccc(N2CCN(CC3CC=CCC3)CC2)cc1 (stereo not drawn) [Nemacol-4]
any phene, mean % fraction of young adults exhibiting any phenotype (coiled, jerky-Unc or paralyzed) (3.75uM): 15% | atypical locomotion (number of animals) (3.75uM): 0 and 4 and 11 | coiled (number of animals) (3.75uM): 0 and 1 | no phene (number of animals) (3.75uM): 20 and 14 and 8 | paralyzed (number of animals) (3.75uM): 0 and 1 | AVERAGES Fraction Coiled (15 μM, 30 min): 0.0 | AVERAGES Fraction Paralyzed (15 μM, 30 min): 0.0 | AVERAGES Fraction Punc (15 μM, 30 min): 0.222 | C1 (number of animals) [1]: 0 | C2 (number of animals) [1]: 0 | Fraction Coiled [1]: 0.0 | Fraction Paralyzed [1]: 0.0 | Fraction Punc [1]: 0.111 and 0.4 | NP (number of animals) [1]: 16 and 11 | P (number of animals) [1]: 0 | Punc (number of animals) [1]: 2 and 7 | AVERAGES Fraction Coiled (15 μM, 60 min): 0.0185 | AVERAGES Fraction Paralyzed (15 μM, 60 min): 0.0 | AVERAGES Fraction Punc (15 μM, 60 min): 0.426 | C1 (number of animals) [2]: 1 | C2 (number of animals) [2]: 0 | Fraction Coiled [2]: 0.0556 | Fraction Paralyzed [2]: 0.0 | Fraction Punc [2]: 0.4 and 0.6 | NP (number of animals) [2]: 10 and 7 | P (number of animals) [2]: 0 | Punc (number of animals) [2]: 7 and 11 | AVERAGES Fraction Coiled (15 μM, 90 min): 0.0 | AVERAGES Fraction Paralyzed (15 μM, 90 min): 0.0 | AVERAGES Fraction Punc (15 μM, 90 min): 0.352 | C1 (number of animals) [3]: 0 | C2 (number of animals) [3]: 0 | Fraction Coiled [3]: 0.0 | Fraction Paralyzed [3]: 0.0 | Fraction Punc [3]: 0.5 | NP (number of animals) [3]: 9 | P (number of animals) [3]: 0 | Punc (number of animals) [3]: 9 | AVERAGES Fraction Coiled (15 μM, 120 min): 0.0185 | AVERAGES Fraction Paralyzed (15 μM, 120 min): 0.0 | AVERAGES Fraction Punc (15 μM, 120 min): 0.3 | C1 (number of animals) [4]: 0 | C2 (number of animals) [4]: 0 | Fraction Coiled [4]: 0.0 | Fraction Paralyzed [4]: 0.0 | Fraction Punc [4]: 0.333 and 0.4 | NP (number of animals) [4]: 12 and 11 | P (number of animals) [4]: 0 | Punc (number of animals) [4]: 6 and 7 | AVERAGES Fraction Coiled (15 μM, 240 min): 0.0185 | AVERAGES Fraction Paralyzed (15 μM, 240 min): 0.0 | AVERAGES Fraction Punc (15 μM, 240 min): 0.0741 | C1 (number of animals) [5]: 1 | C2 (number of animals) [5]: 0 | Fraction Coiled [5]: 0.0556 | Fraction Paralyzed [5]: 0.0 | Fraction Punc [5]: 0.0 and 0.167 | NP (number of animals) [5]: 15 | P (number of animals) [5]: 0 | Punc (number of animals) [5]: 0 and 3 | AVERAGES Fraction Coiled (15 μM, 360 min): 0.0 | AVERAGES Fraction Paralyzed (15 μM, 360 min): 0.0 | AVERAGES Fraction Punc (15 μM, 360 min): 0.0 | C1 (number of animals) [6]: 0 | C2 (number of animals) [6]: 0 | Fraction Coiled [6]: 0.0 | Fraction Paralyzed [6]: 0.0 | Fraction Punc [6]: 0.0 | NP (number of animals) [6]: 18 | P (number of animals) [6]: 0 | Punc (number of animals) [6]: 0 | Next Day Animals alive (moving fine) (15 μM, next day, single replicate): alive, recovered | any phene, mean % fraction of young adults exhibiting any phenotype (coiled, jerky-Unc or paralyzed) (15uM): 45% | atypical locomotion (number of animals) (15uM): 4 and 2 and 5 and 8 | coiled (number of animals) (15uM): 0 and 1 and 6 and 3 | no phene (number of animals) (15uM): 16 and 15 and 17 and 18 and 0 | paralyzed (number of animals) (15uM): 0 and 9 | AVERAGES Fraction Coiled (30 μM, 30 min): 0.0556 | AVERAGES Fraction Paralyzed (30 μM, 30 min): 0.0 | AVERAGES Fraction Punc (30 μM, 30 min): 0.6 | C1 (number of animals) [7]: 0 and 2 | C2 (number of animals) [7]: 1 and 0 | Fraction Coiled [7]: 0.0556 and 0.0 and 0.111 | Fraction Paralyzed [7]: 0.0 | Fraction Punc [7]: 0.6 and 0.444 and 0.7 | NP (number of animals) [7]: 6 and 10 and 3 | P (number of animals) [7]: 0 | Punc (number of animals) [7]: 11 and 8 and 13 | AVERAGES Fraction Coiled (30 μM, 60 min): 0.0752 | AVERAGES Fraction Paralyzed (30 μM, 60 min): 0.0 | AVERAGES Fraction Punc (30 μM, 60 min): 0.7 | C1 (number of animals) [8]: 0 | C2 (number of animals) [8]: 3 and 1 and 0 | Fraction Coiled [8]: 0.167 and 0.0588 and 0.0 | Fraction Paralyzed [8]: 0.0 | Fraction Punc [8]: 0.7 and 0.529 and 0.9 | NP (number of animals) [8]: 2 and 7 and 1 | P (number of animals) [8]: 0 | Punc (number of animals) [8]: 13 and 9 and 17 | AVERAGES Fraction Coiled (30 μM, 90 min): 0.0556 | AVERAGES Fraction Paralyzed (30 μM, 90 min): 0.0556 | AVERAGES Fraction Punc (30 μM, 90 min): 0.667 | C1 (number of animals) [9]: 0 | C2 (number of animals) [9]: 1 and 2 and 0 | Fraction Coiled [9]: 0.0556 and 0.111 and 0.0 | Fraction Paralyzed [9]: 0.167 and 0.0 | Fraction Punc [9]: 0.7 and 0.5 and 0.8 | NP (number of animals) [9]: 1 and 7 and 4
